Assay results reported in ChEMBL document CHEMBL3301361, “Experimental in vitro DMPK and physicochemical data on a set of publicly disclosed compounds”.
In brackets after ≈: the same amount, converted by molar mass.

Key:
in vitro [1] = details: human, hepatocytes
in vitro [2] = details: hepatocytes
physchem [3] = details: octan-1-ol/water, pH 7.4, LogD7.4
physchem [4] = details: pH 7.4 buffer
in vitro [5] = details: SD, HW or BN, rat, plasma
in vitro [6] = details: human
in vitro [7] = details: human, plasma, PPB

With `NC1(c2ccc(-c3nn4ccnc4cc3-c3ccccc3)cc2)CCC1` the hepatocyte CLint (in vitro [1]) was 7.76 µL/min/1e6 cells and the hepatocyte CLint (in vitro [2]) was over 150 µL/min/1e6 cells.
Molecule `CO[C@H]1C[C@@H]2CC[C@@H](C)[C@@](O)(O2)C(=O)C(=O)N2CCCC[C@H]2C(=O)O[C@H]([C@H](C)C[C@@H]2CC[C@@H](O)[C@H](OC)C2)CC(=O)[C@H](C)/C=C(\C)[C@@H](O)[C@@H](OC)C(=O)[C@H](C)C[C@H](C)/C=C/C=C/C=C/1C` [SIROLIMUS] has a hepatocyte CLint (in vitro [1]) of 50.1 µL/min/1e6 cells and a hepatocyte CLint (in vitro [2]) of over 150 µL/min/1e6 cells.
For `C=CCc1ccccc1OCC(O)CNC(C)C` (stereo not drawn) [ALPRENOLOL], the logD (physchem [3]) was 0.99, the hepatocyte CLint (in vitro [1]) was 13.2 µL/min/1e6 cells and the hepatocyte CLint (in vitro [2]) was over 150 µL/min/1e6 cells.
Work on `Cc1nn(C)c2cc(N3CCN(C(=O)[C@@H]4CCCC[C@H]4C(=O)NC4(C#N)CC4)[C@H](C)C3)ccc12` yielded a hepatocyte CLint (in vitro [1]) of 7.41 µL/min/1e6 cells and a hepatocyte CLint (in vitro [2]) of 8.13 µL/min/1e6 cells.
Molecule `NC1(c2ccc(-c3nc4ccccn4c3-c3ccccc3)cc2)CCC1` has a hepatocyte CLint (in vitro [1]) of 18.2 µL/min/1e6 cells and a hepatocyte CLint (in vitro [2]) of over 150 µL/min/1e6 cells.
In the case of `Cc1oncc1C(=O)Nc1ccc(C(F)(F)F)cc1` [LEFLUNOMIDE], the logD (physchem [3]) was 3.9, the hepatocyte CLint (in vitro [1]) was under 3 µL/min/1e6 cells and the hepatocyte CLint (in vitro [2]) was 24 µL/min/1e6 cells. The solubility thermodynamic (physchem [4]) was 67.6 µM (≈ 18.3 µg/mL).
For `CCC[C@H](CO)Nc1nc(S[C@@H](C)c2cccc(C#N)c2)nc2[nH]c(=O)sc12`, the logD (physchem [3]) was 3.7, the hepatocyte CLint (in vitro [1]) was 22.4 µL/min/1e6 cells and the fraction unbound at 5 h (in vitro [5]) was 0.0008. For the same molecule, the microsomal CLint (in vitro [6]; liver microsomes) was 52.5 µL/min/mg and the fraction unbound at 5 h (in vitro [7]) was 0.0007.
`N#Cc1ccc(OC2CCN(C[C@H](O)CNC(=O)c3c[nH]c(=O)c4ccccc34)CC2)cc1Cl` gave a logD (physchem [3]) of 2.56, a hepatocyte CLint (in vitro [1]) of under 3 µL/min/1e6 cells and a hepatocyte CLint (in vitro [2]) of 15 µL/min/1e6 cells. It also gave a fraction unbound at 5 h (in vitro [7]) of 0.197.
For `CCc1cccc2cc(C(O)CNC(C)(C)C)oc12` (stereo not drawn) [BUFURALOL], the hepatocyte CLint (in vitro [1]) was 8.71 µL/min/1e6 cells, the hepatocyte CLint (in vitro [2]) was over 150 µL/min/1e6 cells and the fraction unbound at 5 h (in vitro [7]) was 0.0801.
Molecule `C#Cc1cccc(Nc2ncnc3cc4c(cc23)OCCOCCOCCO4)c1` [ICOTINIB] has a hepatocyte CLint (in vitro [1]) of 3.55 µL/min/1e6 cells and a hepatocyte CLint (in vitro [2]) of 21.9 µL/min/1e6 cells.
For `O=c1[nH]c2ccccc2n1C1CCN(Cc2ccc(-c3nc4ccccc4cc3-c3ccccc3)cc2)CC1`, the hepatocyte CLint (in vitro [1]) was under 3 µL/min/1e6 cells and the hepatocyte CLint (in vitro [2]) was 35.5 µL/min/1e6 cells.
`COC(=O)C1=C(C)NC(C)=C(C(=O)OC(C)C)[C@@H]1c1cccc2nonc12` [(R)-ISRADIPINE] gave a logD (physchem [3]) of 3.77, a hepatocyte CLint (in vitro [1]) of 126 µL/min/1e6 cells and a hepatocyte CLint (in vitro [2]) of over 150 µL/min/1e6 cells.
`COc1ccccc1Oc1c(NS(=O)(=O)c2ccc(C(C)(C)C)cc2)nc(-c2ncccn2)nc1OCCO` [BOSENTAN] showed a logD (physchem [3]) of 1.03, a hepatocyte CLint (in vitro [1]) of 4.79 µL/min/1e6 cells and a fraction unbound at 5 h (in vitro [5]) of 0.0122. It also gave a microsomal CLint (in vitro [6]; liver microsomes) of 15.1 µL/min/mg and a fraction unbound at 5 h (in vitro [7]) of 0.013.
`CCN1CCN(c2ccc(Nc3cc(N(C)C(=O)Nc4c(Cl)c(OC)cc(OC)c4Cl)ncn3)cc2)CC1` [INFIGRATINIB] showed a logD (physchem [3]) of 3.7, a hepatocyte CLint (in vitro [1]) of 28.8 µL/min/1e6 cells and a hepatocyte CLint (in vitro [2]) of 87.1 µL/min/1e6 cells. It also gave a solubility thermodynamic (physchem [4]) of 0.5 µM (≈ 0.28 µg/mL).
Molecule `Cn1sc(=O)c2cc(S(N)(=O)=O)ccc21` has a logD (physchem [3]) of 0.3, a hepatocyte CLint (in vitro [1]) of 27.5 µL/min/1e6 cells and a hepatocyte CLint (in vitro [2]) of 17.4 µL/min/1e6 cells.
Work on `COC(=O)c1ccc(C)c(NS(=O)(=O)c2ccc3c(c2)c(=O)sn3C)c1` yielded a logD (physchem [3]) of 2.6, a hepatocyte CLint (in vitro [1]) of over 150 µL/min/1e6 cells and a hepatocyte CLint (in vitro [2]) of over 150 µL/min/1e6 cells.
`CS(=O)(=O)N1CCc2c(-c3cnc(N)nc3)nc(N3CCOCC3)nc21` [IZORLISIB] showed a logD (physchem [3]) of 1.2, a hepatocyte CLint (in vitro [1]) of under 3 µL/min/1e6 cells and a hepatocyte CLint (in vitro [2]) of 5.37 µL/min/1e6 cells. For the same molecule, the solubility thermodynamic (physchem [4]) was 1.7 µM (≈ 0.642 µg/mL).
`Cc1ccc(NC(=O)c2cccc(N(C)S(C)(=O)=O)c2)cc1NC(=O)c1ccc2ncccc2c1` gave a hepatocyte CLint (in vitro [1]) of under 3 µL/min/1e6 cells and a hepatocyte CLint (in vitro [2]) of 72.4 µL/min/1e6 cells.
`NC1(c2ccc(-c3ncc4nccn4c3-c3ccccc3)cc2)CCC1` showed a hepatocyte CLint (in vitro [1]) of under 3 µL/min/1e6 cells and a hepatocyte CLint (in vitro [2]) of 16.2 µL/min/1e6 cells.
In the case of `C=CC(=O)Nc1cccc(Oc2nc(Nc3ccc(N4CCN(C)CC4)cc3OC)ncc2Cl)c1`, the logD (physchem [3]) was 3.9, the hepatocyte CLint (in vitro [1]) was 3.31 µL/min/1e6 cells and the hepatocyte CLint (in vitro [2]) was 79.4 µL/min/1e6 cells. For the same molecule, the solubility thermodynamic (physchem [4]) was 1 µM (≈ 0.495 µg/mL).
`COc1ccccc1OCCNCC(O)COc1cccc2[nH]c3ccccc3c12` (stereo not drawn) [CARVEDILOL] gave a hepatocyte CLint (in vitro [1]) of 26.3 µL/min/1e6 cells, a fraction unbound at 5 h (in vitro [5]) of 0.0262 and a microsomal CLint (in vitro [6]; microsomes) of 41.7 µL/min/mg.
In the case of `CCOc1ccc2ccc(=O)oc2c1` [ETHOXYCOUMARIN], the logD (physchem [3]) was 2.2, the hepatocyte CLint (in vitro [1]) was 35.5 µL/min/1e6 cells and the hepatocyte CLint (in vitro [2]) was 64.6 µL/min/1e6 cells. It also gave a solubility thermodynamic (physchem [4]) of 1000 µM (≈ 190 µg/mL).
